Results on 13 compounds are retold here after ChEMBL document CHEMBL5465560, “Selectivity Literature for EUbOPEN Chemogenomic Library” (2024).

The target of test [1] is Insulin-like growth factor 1 receptor (Homo sapiens, UniProt P08069). The test is described as follows: Selectivity interaction (Upstate Kinase Profiler service (Millipore)) EUB0000056c IGF1R. As to conditions: at 1 µM.
Test [2] deals with MAP kinase-interacting serine/threonine-protein kinase 2 (Homo sapiens, UniProt Q9HBH9). Put plainly: Selectivity interaction (ProQinase) EUB0000171b MKNK2.
Chain of MAP kinase-interacting serine/threonine-protein kinase 2 (Q9HBH9 whole entry, looked up): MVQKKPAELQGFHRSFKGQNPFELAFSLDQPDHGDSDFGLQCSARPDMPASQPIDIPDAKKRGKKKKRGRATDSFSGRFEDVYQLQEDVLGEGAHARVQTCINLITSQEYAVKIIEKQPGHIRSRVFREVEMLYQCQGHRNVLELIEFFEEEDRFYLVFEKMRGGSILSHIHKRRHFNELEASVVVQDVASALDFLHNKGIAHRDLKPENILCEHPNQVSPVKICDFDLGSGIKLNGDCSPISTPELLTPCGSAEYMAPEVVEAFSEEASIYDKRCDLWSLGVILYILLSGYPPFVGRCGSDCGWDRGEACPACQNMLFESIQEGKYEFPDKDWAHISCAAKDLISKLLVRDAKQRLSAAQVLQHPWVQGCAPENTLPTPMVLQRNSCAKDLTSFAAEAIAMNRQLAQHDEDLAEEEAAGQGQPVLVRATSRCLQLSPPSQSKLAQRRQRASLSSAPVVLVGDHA
In test [3] the target is T1, Rhodopsin kinase GRK7 (Homo sapiens) (UniProt Q8WTQ7).
T1 sequence (whole entry): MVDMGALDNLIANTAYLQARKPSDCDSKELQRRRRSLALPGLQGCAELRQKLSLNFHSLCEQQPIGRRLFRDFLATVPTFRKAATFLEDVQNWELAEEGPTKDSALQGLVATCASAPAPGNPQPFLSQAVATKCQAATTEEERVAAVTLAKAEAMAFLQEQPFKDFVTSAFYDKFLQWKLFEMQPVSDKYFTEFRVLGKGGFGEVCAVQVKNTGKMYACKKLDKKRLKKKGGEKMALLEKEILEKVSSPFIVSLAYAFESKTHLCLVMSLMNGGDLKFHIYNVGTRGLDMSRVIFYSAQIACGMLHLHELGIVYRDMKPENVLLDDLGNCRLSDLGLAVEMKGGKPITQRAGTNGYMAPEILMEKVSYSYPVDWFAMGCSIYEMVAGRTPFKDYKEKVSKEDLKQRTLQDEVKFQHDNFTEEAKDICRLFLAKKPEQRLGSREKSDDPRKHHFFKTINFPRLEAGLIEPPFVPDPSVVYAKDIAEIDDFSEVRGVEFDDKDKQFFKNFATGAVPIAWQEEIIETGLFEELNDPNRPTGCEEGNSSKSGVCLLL
Conditions: at 10 µM.

Test [4] addresses Death-associated protein kinase 2 (Homo sapiens) (UniProt Q9UIK4). Put plainly: Selectivity interaction (KinomeScan (DiscoverX)) EUB0001079a DAPK2. As to conditions: at 1 µM.
Test [5] has as its target T2, Testis-specific serine/threonine-protein kinase 1 (Homo sapiens) (UniProt Q9BXA7).
T2 sequence (whole entry): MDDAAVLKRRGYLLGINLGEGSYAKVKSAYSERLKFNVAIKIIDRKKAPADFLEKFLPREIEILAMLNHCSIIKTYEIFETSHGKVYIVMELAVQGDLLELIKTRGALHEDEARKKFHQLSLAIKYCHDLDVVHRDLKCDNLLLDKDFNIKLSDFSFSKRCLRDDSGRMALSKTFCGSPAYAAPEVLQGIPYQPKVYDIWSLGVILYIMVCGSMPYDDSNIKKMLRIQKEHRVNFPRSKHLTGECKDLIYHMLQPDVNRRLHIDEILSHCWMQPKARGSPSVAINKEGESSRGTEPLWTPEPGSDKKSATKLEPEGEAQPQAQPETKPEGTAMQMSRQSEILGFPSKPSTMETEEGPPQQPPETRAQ
The test is described as follows: Selectivity interaction (KinomeScan (DiscoverX)) EUB0001049a TSSK1B. As to conditions: at 1 µM.

In test [6] the target is T3, Interleukin-1 receptor-associated kinase 4 (Homo sapiens) (UniProt Q9NWZ3).
T3 sequence (whole entry): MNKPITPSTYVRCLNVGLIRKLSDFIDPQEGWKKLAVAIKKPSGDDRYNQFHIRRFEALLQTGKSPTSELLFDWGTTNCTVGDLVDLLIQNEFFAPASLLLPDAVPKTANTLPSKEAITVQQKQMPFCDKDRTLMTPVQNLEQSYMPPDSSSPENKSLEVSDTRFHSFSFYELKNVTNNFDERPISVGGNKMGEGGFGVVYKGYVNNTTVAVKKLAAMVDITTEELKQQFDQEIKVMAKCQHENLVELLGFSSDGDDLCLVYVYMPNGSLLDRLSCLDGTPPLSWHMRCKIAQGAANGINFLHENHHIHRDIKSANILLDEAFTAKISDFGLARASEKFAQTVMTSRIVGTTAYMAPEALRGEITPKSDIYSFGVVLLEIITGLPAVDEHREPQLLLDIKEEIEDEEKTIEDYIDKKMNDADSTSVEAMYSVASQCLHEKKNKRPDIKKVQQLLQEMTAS
Put plainly: Selectivity interaction (KinomeScan (DiscoverX)) EUB0001550a IRAK4. Conditions: at 1 µM.

In test [7] the target is T4, Calcium/calmodulin-dependent protein kinase type IV (Homo sapiens) (UniProt Q16566).
T4 sequence (whole entry): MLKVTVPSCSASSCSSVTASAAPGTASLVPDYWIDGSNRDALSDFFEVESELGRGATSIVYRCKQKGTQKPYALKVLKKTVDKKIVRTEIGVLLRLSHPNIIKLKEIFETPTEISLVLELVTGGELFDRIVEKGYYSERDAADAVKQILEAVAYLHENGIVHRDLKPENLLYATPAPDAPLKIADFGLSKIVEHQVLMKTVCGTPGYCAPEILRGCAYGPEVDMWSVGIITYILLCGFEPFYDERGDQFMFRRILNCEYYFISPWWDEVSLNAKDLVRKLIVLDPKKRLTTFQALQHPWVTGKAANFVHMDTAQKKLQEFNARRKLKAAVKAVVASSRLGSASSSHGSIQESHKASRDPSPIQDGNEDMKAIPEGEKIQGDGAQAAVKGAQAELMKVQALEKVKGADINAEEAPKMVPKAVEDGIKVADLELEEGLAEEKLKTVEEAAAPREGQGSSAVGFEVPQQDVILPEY
Put plainly: Selectivity interaction (KinomeScan (DiscoverX)) EUB0000045b CAMK4.

In test [8] the target is RAC-gamma serine/threonine-protein kinase (Homo sapiens, UniProt Q9Y243). Put plainly: Selectivity interaction (Rxn Biology Kinase assay) EUB0001632a AKT3. Conditions: at 10 µM.
In test [9] the target is Phosphatidylinositol 4-kinase beta (Homo sapiens, UniProt Q9UBF8). Put plainly: Selectivity interaction (ActivX KiNativ screen (kinase selectivity in THP-1 cell lysates)) EUB0000639a PI4KB. The format is subcellular. As to conditions: lysate, at 0.04 µM.
Chain of Phosphatidylinositol 4-kinase beta (Q9UBF8 2-816 limits assumed): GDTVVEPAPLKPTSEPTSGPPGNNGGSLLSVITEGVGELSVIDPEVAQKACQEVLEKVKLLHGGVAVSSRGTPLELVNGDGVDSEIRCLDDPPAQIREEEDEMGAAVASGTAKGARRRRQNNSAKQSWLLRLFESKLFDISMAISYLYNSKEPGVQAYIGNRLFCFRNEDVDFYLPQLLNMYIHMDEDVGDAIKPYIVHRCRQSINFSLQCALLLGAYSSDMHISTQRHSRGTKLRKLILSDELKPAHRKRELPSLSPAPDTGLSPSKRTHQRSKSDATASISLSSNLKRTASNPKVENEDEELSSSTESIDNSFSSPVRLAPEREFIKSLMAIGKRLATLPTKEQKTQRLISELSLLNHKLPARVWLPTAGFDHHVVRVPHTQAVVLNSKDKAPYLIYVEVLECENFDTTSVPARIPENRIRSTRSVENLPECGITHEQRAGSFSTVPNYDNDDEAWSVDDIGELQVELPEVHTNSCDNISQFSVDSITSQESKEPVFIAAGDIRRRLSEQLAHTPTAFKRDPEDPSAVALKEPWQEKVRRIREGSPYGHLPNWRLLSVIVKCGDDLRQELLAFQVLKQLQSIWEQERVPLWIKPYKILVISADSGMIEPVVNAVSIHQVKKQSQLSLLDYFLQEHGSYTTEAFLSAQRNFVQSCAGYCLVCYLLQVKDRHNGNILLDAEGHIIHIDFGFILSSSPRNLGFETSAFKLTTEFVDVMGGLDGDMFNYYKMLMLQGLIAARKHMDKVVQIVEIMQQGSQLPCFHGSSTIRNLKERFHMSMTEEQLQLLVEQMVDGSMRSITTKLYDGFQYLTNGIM
Test [10] addresses Tyrosine-protein kinase SYK (Homo sapiens, UniProt P43405). The test is described as follows: Selectivity interaction (Kinase panel (33PanQinase(R) Activity Assay)) EUB0000877a SYK.
Test [11] has as its target Protein polybromo-1 (Homo sapiens) (UniProt Q86U86). Put plainly: Selectivity interaction (Human bromodomain panel (DSF assay)) EUB0000233b PBRM1. Background: Differential scanning fluorimetry follows unfolding on heating by fluorescence.
In test [12] the test system is Receptor-type tyrosine-protein kinase FLT3 (Homo sapiens), P36888 [UNDEFINED MUTATION]. The test is described as follows: Selectivity interaction (KinomeScan (DiscoverX)) EUB0000311b FLT3. As to conditions: at 1 µM.
Chain of Receptor-type tyrosine-protein kinase FLT3 (Homo sapiens), P36888 [UNDEFINED MUTATION] (P36888 whole entry, looked up, stated change not applied, canonical isoform): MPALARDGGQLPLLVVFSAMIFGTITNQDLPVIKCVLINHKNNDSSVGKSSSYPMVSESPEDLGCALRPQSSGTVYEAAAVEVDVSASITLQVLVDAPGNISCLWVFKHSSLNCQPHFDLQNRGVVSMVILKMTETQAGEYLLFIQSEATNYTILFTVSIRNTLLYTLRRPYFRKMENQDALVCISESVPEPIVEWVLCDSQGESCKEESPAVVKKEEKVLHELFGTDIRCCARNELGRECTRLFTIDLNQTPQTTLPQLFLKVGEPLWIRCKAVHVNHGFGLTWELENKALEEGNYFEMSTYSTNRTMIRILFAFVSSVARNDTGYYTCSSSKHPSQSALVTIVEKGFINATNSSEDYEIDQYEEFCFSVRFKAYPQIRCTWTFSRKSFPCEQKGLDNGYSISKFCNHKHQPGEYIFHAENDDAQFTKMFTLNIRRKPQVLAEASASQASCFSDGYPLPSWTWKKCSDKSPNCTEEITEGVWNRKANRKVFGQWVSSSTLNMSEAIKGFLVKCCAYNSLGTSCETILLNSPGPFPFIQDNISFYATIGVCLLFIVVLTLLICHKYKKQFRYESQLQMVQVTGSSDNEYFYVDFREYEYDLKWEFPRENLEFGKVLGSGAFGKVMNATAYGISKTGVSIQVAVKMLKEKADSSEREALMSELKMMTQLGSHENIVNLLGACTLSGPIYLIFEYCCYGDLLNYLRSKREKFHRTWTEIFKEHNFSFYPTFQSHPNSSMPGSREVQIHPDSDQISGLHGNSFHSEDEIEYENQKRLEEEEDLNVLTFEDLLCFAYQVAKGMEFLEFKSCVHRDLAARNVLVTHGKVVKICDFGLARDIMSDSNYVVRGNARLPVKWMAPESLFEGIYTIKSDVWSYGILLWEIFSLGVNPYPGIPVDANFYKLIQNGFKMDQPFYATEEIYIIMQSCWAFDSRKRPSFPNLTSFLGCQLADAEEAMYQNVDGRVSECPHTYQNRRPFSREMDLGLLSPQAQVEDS
For test [13], the system named is Phosphatidylinositol 4,5-bisphosphate 3-kinase catalytic subunit alpha isoform (Homo sapiens), P42336 [H1047L]. As to conditions: at 10 µM.
Chain of Phosphatidylinositol 4,5-bisphosphate 3-kinase catalytic subunit alpha isoform (Homo sapiens), P42336 [H1047L] (P42336 whole entry H1047L, canonical isoform): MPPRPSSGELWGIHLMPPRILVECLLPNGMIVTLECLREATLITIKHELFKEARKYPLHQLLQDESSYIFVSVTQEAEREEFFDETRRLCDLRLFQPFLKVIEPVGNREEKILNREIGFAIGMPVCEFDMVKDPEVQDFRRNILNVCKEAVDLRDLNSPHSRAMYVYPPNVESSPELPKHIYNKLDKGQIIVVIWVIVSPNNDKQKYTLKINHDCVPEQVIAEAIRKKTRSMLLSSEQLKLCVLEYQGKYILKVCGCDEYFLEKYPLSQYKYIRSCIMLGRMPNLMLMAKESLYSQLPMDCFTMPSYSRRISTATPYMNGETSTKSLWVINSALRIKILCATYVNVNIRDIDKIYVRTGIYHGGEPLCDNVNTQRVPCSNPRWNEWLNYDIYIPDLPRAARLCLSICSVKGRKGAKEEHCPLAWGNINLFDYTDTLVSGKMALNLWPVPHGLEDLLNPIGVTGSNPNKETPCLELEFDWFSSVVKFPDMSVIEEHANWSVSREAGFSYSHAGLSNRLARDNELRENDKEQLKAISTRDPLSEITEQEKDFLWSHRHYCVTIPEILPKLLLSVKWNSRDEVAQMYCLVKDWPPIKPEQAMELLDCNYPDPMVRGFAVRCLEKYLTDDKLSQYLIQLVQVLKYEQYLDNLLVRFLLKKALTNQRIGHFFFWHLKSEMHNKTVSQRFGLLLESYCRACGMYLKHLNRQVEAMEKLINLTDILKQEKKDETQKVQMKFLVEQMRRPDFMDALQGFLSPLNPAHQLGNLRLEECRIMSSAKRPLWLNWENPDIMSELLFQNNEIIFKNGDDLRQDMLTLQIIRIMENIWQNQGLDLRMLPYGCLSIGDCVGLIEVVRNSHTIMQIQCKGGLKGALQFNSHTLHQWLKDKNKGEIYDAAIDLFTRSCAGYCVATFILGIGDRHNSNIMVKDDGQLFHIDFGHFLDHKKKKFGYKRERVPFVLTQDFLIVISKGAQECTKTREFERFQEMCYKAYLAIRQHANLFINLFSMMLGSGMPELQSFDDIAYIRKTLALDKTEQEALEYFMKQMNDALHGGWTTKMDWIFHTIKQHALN

Chain of Protein polybromo-1 (Homo sapiens) (Q86U86 whole entry): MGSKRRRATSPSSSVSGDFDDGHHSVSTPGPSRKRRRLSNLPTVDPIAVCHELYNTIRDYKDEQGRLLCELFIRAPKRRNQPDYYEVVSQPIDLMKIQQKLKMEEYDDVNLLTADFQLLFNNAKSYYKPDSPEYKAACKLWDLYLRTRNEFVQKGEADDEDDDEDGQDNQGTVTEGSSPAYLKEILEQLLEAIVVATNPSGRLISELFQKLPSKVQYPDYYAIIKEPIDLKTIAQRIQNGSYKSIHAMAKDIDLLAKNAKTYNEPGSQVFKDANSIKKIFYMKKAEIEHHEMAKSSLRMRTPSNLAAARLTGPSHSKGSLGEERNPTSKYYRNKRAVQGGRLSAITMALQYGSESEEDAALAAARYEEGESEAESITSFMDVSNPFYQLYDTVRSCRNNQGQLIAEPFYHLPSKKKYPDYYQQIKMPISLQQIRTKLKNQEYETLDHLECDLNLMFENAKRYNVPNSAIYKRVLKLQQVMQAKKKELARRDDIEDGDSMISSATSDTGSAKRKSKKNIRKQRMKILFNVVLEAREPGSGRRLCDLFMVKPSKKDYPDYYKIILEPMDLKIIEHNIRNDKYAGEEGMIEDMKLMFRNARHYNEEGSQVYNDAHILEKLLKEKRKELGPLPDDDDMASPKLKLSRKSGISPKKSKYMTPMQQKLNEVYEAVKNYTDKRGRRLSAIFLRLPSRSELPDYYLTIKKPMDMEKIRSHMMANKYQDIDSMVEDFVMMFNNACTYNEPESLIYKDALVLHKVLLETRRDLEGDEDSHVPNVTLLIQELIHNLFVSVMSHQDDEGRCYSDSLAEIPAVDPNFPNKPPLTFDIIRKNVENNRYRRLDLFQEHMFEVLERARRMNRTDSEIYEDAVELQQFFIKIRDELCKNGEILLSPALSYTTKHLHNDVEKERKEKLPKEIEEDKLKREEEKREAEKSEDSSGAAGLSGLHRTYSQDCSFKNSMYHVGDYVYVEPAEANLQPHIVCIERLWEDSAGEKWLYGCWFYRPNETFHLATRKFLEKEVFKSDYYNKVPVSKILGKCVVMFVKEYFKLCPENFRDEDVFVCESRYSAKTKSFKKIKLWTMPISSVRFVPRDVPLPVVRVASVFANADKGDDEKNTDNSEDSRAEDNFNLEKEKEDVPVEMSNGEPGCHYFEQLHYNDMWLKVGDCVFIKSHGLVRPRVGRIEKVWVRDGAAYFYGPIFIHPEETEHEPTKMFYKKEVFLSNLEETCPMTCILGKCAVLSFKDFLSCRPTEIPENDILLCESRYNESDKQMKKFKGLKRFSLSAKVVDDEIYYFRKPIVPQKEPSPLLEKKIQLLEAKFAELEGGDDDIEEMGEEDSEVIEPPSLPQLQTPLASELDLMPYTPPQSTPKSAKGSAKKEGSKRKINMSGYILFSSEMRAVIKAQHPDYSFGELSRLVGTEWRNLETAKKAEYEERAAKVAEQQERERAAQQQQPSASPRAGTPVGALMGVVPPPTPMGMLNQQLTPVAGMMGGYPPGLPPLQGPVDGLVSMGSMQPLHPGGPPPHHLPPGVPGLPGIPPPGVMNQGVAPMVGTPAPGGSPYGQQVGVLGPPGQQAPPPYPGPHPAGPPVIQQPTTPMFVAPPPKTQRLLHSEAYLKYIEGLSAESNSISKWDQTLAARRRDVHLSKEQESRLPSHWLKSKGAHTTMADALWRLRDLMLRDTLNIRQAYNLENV

On to `Cc1ccc(-c2ccc3c(ccc4sc5c(c43)NC[C@@H](C)NC5=O)n2)cn1`, for which the % of inhibition in [1] was 0%.

For the compound `C=CC(=O)Nc1cccc(C(=O)Nc2ccc(Nc3cc(-c4[nH]c(SC)nc4C)ccn3)cc2)c1`, the % of control in test [2] (at 1 µM) turned out to be 80%; in test [2] (at 5 µM), 31%. As to `Cc1cc([C@@H](C)Nc2ccccc2C(=O)O)c2nc(N3CCOCC3)cc(=O)n2c1` [AZD-6482], the % of control in [3] amounted to 57%. `Nc1cnc(N2CCc3cc(S(=O)(=O)Nc4c(F)cc(Cl)cc4F)cc(N4CCCC4=O)c32)nc1` [TP-020n]: the % of control in test [4] was determined as 91%. For the compound `COc1cc(Nc2nc(C)cc(-c3cnn4nc(OC)ccc34)n2)cc(C(F)(F)F)c1`, in test [5], the % of control turned out to be 100%. Take `CN(C)CC#Cc1ccc2[nH]c3c(c2c1)-c1nc(N)ncc1CCC3`: in test [6], the % of control was 21%. For the compound `C=CC(=O)Nc1cc(-n2c(=O)ccc3cnc4ccc(-c5ccc(NS(C)(=O)=O)cc5)cc4c32)ccc1C`, the % of control in [7] (at 1 µM) worked out at 100%; in test [7] (at 10 µM) it was 72%. With `Cn1cc(-n2cnc3c(NCc4nc5cc(Cl)c(Cl)cc5[nH]4)nc(N4CCOCC4)nc32)cn1`, the % of inhibition in test [8] was 6.75%. For `CC[C@@H]1[C@H](F)C(=O)N[C@@H]1COc1nccc2cc(C(N)=O)c(OC)cc12` [ZIMLOVISERTIB], in test [9], the % of inhibition was -0.3%. With `CCC(=O)N1CC[C@H](Nc2ncnc3c2CN(c2cnc(OC)c(C(F)(F)F)c2)CC3)C1` [LENIOLISIB], the IC50 (commonly the point on the concentration scale where inhibition reaches its midpoint) in [10] was over 10 µM. As to `CN(C)CCCOc1ccc(-c2cc(NCCCn3cccn3)nc(S(C)(=O)=O)n2)cc1`, in test [11], the dTM is under 2 K.

Regarding `CCc1ccccc1C(=O)Nc1n[nH]c2c(C)c(F)c(C3C(C#N)=C(C)N(C)C(C)=C3C#N)cc12` [BAY-3827], the % of control in test [12] came to 11%. As to `COCC(=O)NC/C=C/c1ccc2ncnc(Nc3ccc(Oc4ccc(C)nc4)c(C)c3)c2c1` [CP-724714], the % of control in [13] was 100%.
